# In ChEMBL document CHEMBL3588773, “Volume of Distribution in Drug Design” (J Med Chem, 2015):
# Experiments:
# [1] = Volume of distribution at steady state in human; settings: in vivo
# [2] = Distribution coefficient, log D of the compound; format: physicochemical; settings: octanol/water
# Plasma = assay: (§1) Unbound fraction in human plasma; format: ADME, cell-free
# [3] = Lipophilicity, log P of the compound; settings: octanol/water
# Homo sapiens [4] = species: Homo sapiens; assay: Unbound volume of distribution at steady state in human; format: ADME, organism-based; settings: in vivo
# [5] = Volume of distribution at steady state in Sprague-Dawley rat at 2.5 mg/kg; format: ADME, organism-based; settings: in vivo, read-out: Vdss
# Heat shock protein HSP90 = Heat shock protein HSP90 (Homo sapiens, UniProt P07900+P08238); assay: Inhibition of human recombinant HSP90 by scintillation proximity competition binding assay; format: protein assay
# [6] = Volume of distribution at steady state in wild type mouse; format: ADME, organism-based; settings: in vivo, read-out: Vdss
# [7] = Volume of distribution at steady state in mouse; format: ADME, organism-based; settings: in vivo, read-out: Vdss
# Homo sapiens [8] = species: Homo sapiens; assay: Unbound intrinsic clearance in human; format: ADME, organism-based; settings: in vivo
# [9] = as §1; format: ADME, cell-free
# [10] = Dissociation constant of the compound; format: physicochemical
smiles,measurement,setting,value
CN(C)CCC(c1ccc(Cl)cc1)c1ccccn1 (stereo not given) [CHLORPHENIRAMINE],Vd,[1],10 L/kg
same,logD,[2]; read-out: logD,1.5
same,Fu,Plasma,0.056
same,logP,[3],3.4
same,Vduss,Homo sapiens [4],178 L/kg
CC(C)(CC(F)(F)F)NC(=O)N1Cc2nc(N)nc(-c3c(Cl)cc(Cl)cc3OCCn3cccn3)c2C1,Vd,[5],2 L/kg
same,Ki,Heat shock protein HSP90,9.7 nM
CC(C(=O)O)c1cccc(C(=O)c2ccccc2)c1 (stereo not given) [KETOPROFEN],logD,[2]; read-out: logD,0.2
same,logP,[3],2.9
COCCOC(=O)C1=C(C)NC(C)=C(C(=O)OC(C)C)C1c1cccc([N+](=O)[O-])c1 (stereo not given) [NIMODIPINE],logP,[3],4.2
CC(C)(NC(=O)N1Cc2nc(N)nc(-c3c(Cl)cc(Cl)cc3OCCn3cccn3)c2C1)C12CC(C1)C2,Vd,[5],1.8 L/kg
same,Ki,Heat shock protein HSP90,7.3 nM
CC[C@H](C)C(=O)O[C@H]1C[C@H](O)C=C2C=C[C@H](C)[C@H](CC[C@@H](O)C[C@@H](O)CC(=O)O)[C@H]21 [PRAVASTATIN],Vd,[6],0.27 L/kg
CCOC(=O)C1=C(COCCN)NC(C)=C(C(=O)OC)C1c1ccccc1Cl (stereo not given) [AMLODIPINE],logD,[2]; read-out: logD,1.2
same,logP,[3],3.3
O=c1n(CCCN2CCN(c3cccc(Cl)c3)CC2)nc2ccccn12 [TRAZODONE],Vd,[7],18 L/kg
CC(C)(NC(=O)N1Cc2nc(N)nc(-c3c(Cl)cc(Cl)cc3OCCn3cc(F)cn3)c2C1)C12CC(C1)C2,Vd,[5],11 L/kg
same,Ki,Heat shock protein HSP90,3.3 nM
CC(F)(F)CC(C)(C)NC(=O)N1Cc2nc(N)nc(-c3c(Cl)cc(Cl)cc3OCCn3cccn3)c2C1,Vd,[5],1.8 L/kg
same,Ki,Heat shock protein HSP90,6.6 nM
COCCc1ccc(OCC(O)CNC(C)C)cc1 (stereo not given) [METOPROLOL],logD,[2]; read-out: logD,-0.1
same,Vduss,Homo sapiens [4],4 L/kg
same,CL free,Homo sapiens [8],33 mL/min/kg
CNCCC(Oc1ccc(C(F)(F)F)cc1)c1ccccc1 (stereo not given) [FLUOXETINE],Vd,[1],4.3 L/kg
same,fraction unbound,[9],0.06
same,pKa,[10],10.5
same,Vduss,Homo sapiens [4],71 L/kg
COc1ccc2c(c1)c(CC(=O)O)c(C)n2C(=O)c1ccc(Cl)cc1 [INDOMETHACIN],logD,[2]; read-out: logD,0.7
same,Fu,Plasma,0.01
same,Vduss,Homo sapiens [4],9.6 L/kg
CC(C)(CC(F)(F)F)NC(=O)N1Cc2nc(N)nc(-c3c(Cl)cc(Cl)cc3OCCn3cc(F)cn3)c2C1,Vd,[5],13 L/kg
same,Ki,Heat shock protein HSP90,2.1 nM
CC(C)NCC(O)COc1ccc(CCOCC2CC2)cc1 (stereo not given) [BETAXOLOL],logD,[2],1.1
same,Vduss,Homo sapiens [4],13 L/kg
same,CL free,Homo sapiens [8],13 mL/min/kg
CCC(C)(C)C(=O)O[C@H]1C[C@@H](C)C=C2C=C[C@H](C)[C@H](CC[C@@H]3C[C@@H](O)CC(=O)O3)[C@H]21 [SIMVASTATIN],Vd,[6],14 L/kg
O=C(CCCN1CCC(O)(c2ccc(Cl)cc2)CC1)c1ccc(F)cc1 [HALOPERIDOL],Vd,[7],0.6 L/kg
CC(F)(F)CC(C)(C)NC(=O)N1Cc2nc(N)nc(-c3c(Cl)cc(Cl)cc3OCCn3cc(F)cn3)c2C1,Vd,[5],10 L/kg
same,Ki,Heat shock protein HSP90,1.7 nM
OC(Cn1cncn1)(Cn1cncn1)c1ccc(F)cc1F [FLUCONAZOLE],Vduss,Homo sapiens [4],0.84 L/kg
